Data from patent US20250292865A1, “DETERMINING BIOLOGICAL PARAMETERS OF A CELL” (THE UNIVERSITY OF BATH, priority 2022, published 2025).

Legend:
A-type [Kv1.4] = A-type [Kv1.4] (Homo sapiens, UniProt P22459); conditions: 300 μM; A-type [Kv1.4] selectively expressed in xenopus oocytes; cited from earlier work
A-type K+ ion channel = experiment: Data assimilation of CA1 neuron current clamp recordings: predicted charge through A-type K+ channel before and after drug; assay type: cell-based, rodent
A-type [Kv4.2] = target: T1, A-type [Kv4.2] (Homo sapiens, UniProt Q9NZV8); conditions: 300 μM; A-type [Kv4.2] selectively expressed in xenopus oocytes; cited from earlier work
T1 sequence (Q9NZV8 1-630): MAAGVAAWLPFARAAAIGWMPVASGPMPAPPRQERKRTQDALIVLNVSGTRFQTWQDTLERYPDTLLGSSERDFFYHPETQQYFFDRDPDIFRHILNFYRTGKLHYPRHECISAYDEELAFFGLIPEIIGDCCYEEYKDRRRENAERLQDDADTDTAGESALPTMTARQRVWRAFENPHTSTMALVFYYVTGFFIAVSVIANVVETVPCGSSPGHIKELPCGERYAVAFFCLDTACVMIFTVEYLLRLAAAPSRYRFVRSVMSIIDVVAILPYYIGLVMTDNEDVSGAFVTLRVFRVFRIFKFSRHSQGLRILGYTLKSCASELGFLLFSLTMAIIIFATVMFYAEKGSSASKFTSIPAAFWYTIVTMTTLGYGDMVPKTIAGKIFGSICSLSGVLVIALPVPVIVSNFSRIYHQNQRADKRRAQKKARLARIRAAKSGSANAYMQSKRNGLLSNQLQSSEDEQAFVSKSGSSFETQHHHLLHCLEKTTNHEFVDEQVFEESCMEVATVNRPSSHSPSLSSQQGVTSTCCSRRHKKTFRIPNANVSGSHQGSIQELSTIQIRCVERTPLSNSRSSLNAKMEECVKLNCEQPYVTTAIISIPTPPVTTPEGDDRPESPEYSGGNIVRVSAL

K ion channel = experiment: Data assimilation of CA1 neuron current clamp recordings: predicted charge through K channel before and after drug; assay type: cell-based, rodent; conditions: 100 nM IbTX, 2000 ms prediction window, FIG. 12A
BK ion channel = target: T2, BK ion channel (Homo sapiens, UniProt Q12791); experiment: Data assimilation of CA1 neuron current clamp recordings: predicted charge through BK channel before and after drug; assay type: cell-based, rodent
T2 construct: endogenous in cells; host or cells: hippocampal CA1 neuron

BK [α + β3] = BK [α + β3] (Homo sapiens, UniProt Q12791); conditions: 100 nM; BK [α + β3] selectively expressed in HEK293 cells; cited from earlier work
NaT ion channel = experiment: Data assimilation of CA1 neuron current clamp recordings: predicted charge through NaT channel before and after drug; assay type: cell-based, rodent; conditions: 100 nM IbTX, 2000 ms prediction window, FIG. 12A
BK [α subunit only] = BK [α subunit only] (Homo sapiens, UniProt Q12791); conditions: 100 nM; BK [α subunit only] selectively expressed in HEK293 cells; cited from earlier work
BK [α + β1] = BK [α + β1] (Homo sapiens, UniProt Q12791); conditions: 100 nM; BK [α + β1] selectively expressed in HEK293 cells; cited from earlier work
SK ion channel = experiment: Data assimilation of CA1 neuron current clamp recordings: predicted charge through SK channel before and after drug; assay type: cell-based, rodent; conditions: 100 nM IbTX, 2000 ms prediction window, FIG. 12A
BK [α + β4] = BK [α + β4] (Homo sapiens, UniProt Q12791); conditions: 100 nM; BK [α + β4] selectively expressed in HEK293 cells; cited from earlier work
HCN1 = target: T3, HCN1 (Homo sapiens, UniProt O60741); conditions: 50 μM; HCN1 selectively expressed in HEK293 cells; cited from earlier work
T3 sequence (O60741 1-890): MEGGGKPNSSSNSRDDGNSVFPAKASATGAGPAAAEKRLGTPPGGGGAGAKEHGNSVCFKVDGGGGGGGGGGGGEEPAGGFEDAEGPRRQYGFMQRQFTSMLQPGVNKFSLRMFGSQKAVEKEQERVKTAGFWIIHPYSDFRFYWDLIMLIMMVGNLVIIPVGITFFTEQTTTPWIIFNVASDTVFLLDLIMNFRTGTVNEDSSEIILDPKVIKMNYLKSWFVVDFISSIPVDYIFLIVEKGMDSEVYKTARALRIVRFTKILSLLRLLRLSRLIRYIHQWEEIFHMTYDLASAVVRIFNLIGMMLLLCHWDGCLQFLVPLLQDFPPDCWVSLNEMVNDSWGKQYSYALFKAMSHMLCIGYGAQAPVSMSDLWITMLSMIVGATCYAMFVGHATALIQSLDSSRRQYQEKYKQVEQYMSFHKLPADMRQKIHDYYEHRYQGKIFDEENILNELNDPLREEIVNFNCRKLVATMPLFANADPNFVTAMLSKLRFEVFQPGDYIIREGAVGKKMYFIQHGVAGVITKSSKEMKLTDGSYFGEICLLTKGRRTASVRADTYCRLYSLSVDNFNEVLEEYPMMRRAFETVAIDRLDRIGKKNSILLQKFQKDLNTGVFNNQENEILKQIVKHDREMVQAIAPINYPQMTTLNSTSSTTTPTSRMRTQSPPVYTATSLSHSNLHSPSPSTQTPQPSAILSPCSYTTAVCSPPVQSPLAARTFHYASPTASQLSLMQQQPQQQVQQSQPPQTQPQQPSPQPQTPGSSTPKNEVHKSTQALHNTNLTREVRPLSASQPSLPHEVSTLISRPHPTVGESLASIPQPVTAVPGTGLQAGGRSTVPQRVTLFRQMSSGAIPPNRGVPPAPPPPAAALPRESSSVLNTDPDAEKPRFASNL

HCN2 = target: T4, HCN2 (Homo sapiens, UniProt Q9UL51); conditions: 50 μM; HCN2 selectively expressed in xenopus oocytes; cited from earlier work
T4 sequence (Q9UL51 1-889): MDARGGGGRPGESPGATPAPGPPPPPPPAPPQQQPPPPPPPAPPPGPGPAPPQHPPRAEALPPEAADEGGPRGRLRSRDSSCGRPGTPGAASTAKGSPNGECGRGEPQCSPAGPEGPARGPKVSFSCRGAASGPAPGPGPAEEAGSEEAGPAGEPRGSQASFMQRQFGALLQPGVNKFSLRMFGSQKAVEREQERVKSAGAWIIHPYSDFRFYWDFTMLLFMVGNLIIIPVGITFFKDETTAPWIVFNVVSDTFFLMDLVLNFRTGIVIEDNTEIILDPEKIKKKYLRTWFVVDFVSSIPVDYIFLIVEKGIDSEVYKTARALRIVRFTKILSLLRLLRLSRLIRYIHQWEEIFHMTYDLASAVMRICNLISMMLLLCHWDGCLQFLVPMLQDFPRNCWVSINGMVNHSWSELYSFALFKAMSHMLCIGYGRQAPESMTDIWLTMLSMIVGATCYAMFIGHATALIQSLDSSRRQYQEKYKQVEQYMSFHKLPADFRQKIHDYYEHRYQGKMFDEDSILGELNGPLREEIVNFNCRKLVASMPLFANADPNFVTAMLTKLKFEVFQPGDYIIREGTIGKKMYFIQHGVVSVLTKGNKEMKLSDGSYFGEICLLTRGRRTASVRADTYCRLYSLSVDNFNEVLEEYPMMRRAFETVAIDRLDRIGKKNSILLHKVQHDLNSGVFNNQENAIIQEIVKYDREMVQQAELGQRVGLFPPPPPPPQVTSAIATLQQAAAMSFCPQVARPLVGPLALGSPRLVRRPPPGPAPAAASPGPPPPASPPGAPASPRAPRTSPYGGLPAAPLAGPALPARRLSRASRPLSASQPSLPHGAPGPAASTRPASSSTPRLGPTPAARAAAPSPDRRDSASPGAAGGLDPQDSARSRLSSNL

T2 sequence (Q12791 whole entry): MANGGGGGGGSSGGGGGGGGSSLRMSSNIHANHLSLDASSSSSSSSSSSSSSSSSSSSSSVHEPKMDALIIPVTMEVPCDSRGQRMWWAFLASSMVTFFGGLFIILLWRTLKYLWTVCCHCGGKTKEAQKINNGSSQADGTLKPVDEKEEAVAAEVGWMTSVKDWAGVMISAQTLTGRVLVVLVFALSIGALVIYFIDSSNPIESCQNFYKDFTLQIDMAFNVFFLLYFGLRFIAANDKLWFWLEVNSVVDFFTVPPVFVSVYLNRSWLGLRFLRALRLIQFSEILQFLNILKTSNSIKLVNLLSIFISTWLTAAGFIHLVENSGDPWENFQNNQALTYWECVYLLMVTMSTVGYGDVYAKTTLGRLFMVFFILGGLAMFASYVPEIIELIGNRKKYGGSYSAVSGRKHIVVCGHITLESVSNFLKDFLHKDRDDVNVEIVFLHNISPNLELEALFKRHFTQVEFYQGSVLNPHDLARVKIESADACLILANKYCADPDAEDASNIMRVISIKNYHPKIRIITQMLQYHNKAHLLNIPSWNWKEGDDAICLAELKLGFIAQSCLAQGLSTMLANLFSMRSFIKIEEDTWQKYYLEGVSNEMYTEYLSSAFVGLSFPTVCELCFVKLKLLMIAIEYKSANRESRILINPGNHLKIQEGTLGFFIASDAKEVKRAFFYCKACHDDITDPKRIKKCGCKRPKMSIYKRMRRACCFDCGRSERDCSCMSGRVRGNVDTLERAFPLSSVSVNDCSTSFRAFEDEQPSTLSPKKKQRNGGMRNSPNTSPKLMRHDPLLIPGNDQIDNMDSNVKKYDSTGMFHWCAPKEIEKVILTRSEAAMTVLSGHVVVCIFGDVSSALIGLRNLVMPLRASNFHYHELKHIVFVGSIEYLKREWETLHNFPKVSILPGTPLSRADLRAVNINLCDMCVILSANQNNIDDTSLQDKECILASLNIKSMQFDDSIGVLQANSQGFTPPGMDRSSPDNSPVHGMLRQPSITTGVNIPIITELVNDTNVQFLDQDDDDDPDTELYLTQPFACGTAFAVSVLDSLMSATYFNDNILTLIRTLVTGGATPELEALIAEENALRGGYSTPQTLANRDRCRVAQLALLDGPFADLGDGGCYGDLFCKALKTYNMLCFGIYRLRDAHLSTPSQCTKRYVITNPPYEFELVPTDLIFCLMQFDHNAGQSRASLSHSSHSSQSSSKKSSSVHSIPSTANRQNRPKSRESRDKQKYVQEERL
Sequence of BK [α + β4] (Q12791 whole entry): as above
Sequence of BK [α + β4] (Q86W47 whole entry partner): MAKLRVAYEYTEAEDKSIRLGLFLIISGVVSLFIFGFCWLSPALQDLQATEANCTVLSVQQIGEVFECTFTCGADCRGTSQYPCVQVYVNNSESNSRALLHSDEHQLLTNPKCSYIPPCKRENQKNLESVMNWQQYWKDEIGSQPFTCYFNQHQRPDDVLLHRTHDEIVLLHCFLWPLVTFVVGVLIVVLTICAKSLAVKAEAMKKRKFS
Sequence of BK [α + β1] (Q12791 whole entry): as the sequence (Q12791 whole entry) above
Sequence of BK [α + β1] (Q16558 whole entry partner): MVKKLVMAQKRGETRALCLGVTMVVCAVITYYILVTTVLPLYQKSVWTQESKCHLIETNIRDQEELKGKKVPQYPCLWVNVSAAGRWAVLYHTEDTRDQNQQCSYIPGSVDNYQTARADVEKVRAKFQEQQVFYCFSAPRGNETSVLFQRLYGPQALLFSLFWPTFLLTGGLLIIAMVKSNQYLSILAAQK
Sequence of BK [α + β3] (Q12791 whole entry): as the sequence (Q12791 whole entry) above
Sequence of BK [α + β3] (Q9NPA1 whole entry partner): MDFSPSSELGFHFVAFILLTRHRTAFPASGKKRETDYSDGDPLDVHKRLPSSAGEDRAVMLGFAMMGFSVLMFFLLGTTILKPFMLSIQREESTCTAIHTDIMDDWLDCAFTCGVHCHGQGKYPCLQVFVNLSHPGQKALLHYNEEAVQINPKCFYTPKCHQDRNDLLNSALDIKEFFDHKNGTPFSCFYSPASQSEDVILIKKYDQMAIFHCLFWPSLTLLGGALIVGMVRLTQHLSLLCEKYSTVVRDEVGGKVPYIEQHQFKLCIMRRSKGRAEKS
Sequence of BK [α subunit only] (Q12791 whole entry): as the sequence (Q12791 whole entry) above
Sequence of A-type [Kv1.4] (P22459 whole entry): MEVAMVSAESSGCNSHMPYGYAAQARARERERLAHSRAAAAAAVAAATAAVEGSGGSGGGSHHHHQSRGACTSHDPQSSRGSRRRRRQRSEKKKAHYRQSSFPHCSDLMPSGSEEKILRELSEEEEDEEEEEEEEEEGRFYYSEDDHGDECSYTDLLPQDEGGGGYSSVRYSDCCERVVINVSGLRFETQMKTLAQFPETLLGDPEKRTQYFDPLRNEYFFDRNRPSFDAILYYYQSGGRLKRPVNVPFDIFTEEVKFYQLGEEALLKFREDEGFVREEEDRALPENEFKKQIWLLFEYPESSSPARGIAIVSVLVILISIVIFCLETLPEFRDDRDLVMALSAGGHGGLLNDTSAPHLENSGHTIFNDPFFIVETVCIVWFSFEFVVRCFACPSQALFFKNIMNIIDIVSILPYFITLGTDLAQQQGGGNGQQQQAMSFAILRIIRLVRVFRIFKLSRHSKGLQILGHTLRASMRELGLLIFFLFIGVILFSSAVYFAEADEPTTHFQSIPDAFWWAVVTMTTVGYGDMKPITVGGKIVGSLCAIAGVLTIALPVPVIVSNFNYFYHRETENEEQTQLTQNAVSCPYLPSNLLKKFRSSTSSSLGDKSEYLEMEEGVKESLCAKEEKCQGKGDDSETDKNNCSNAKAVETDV

For `Nc1ccncc1` [4-AP, 4-aminopyridine], the “EXPECTED DEGREE OF BLOCK AT APPLIED CONCENTRATION” value (A-type [Kv1.4]) is listed as roughly 25%, the “MEAN PREDICTED INHIBITION (Results)” value (A-type K+ ion channel; 300 μM applied, A-type K+ current, CA1 neuron, mean) is listed as 19.0% and the “MEDIAN PREDICTED INHIBITION (Results)” value (A-type K+ ion channel; 300 μM applied, A-type K+ current, CA1 neuron, median) is listed as 24.3%. The “EXPECTED DEGREE OF BLOCK AT APPLIED CONCENTRATION” value (A-type [Kv4.2]) was roughly 13%.
With “Iberiotoxin (QFTDVDCSVSKECWSVCKDLFGVDRGKCMGKKCRCYQ; UniProt P24663 1-37, looked up)” the “Effect on total predicted charge (spike normalised), pre- vs post-drug” value (K ion channel) was “does not have a visible effect”, the “Effect on total predicted charge (spike normalised), pre- vs post-drug” value (BK ion channel; 100 nM IbTX, BK ion channel, 2000 ms prediction window, FIG. 12A, 12D) was “does have a noticeable effect” and the “MEAN PREDICTED INHIBITION (Results)” value (BK ion channel; 100 nM applied, BK current, CA1 neuron, mean) was 14.8%. The “MEDIAN PREDICTED INHIBITION (Results)” value (BK ion channel; 100 nM applied, BK current, CA1 neuron, median) was 12.1%, the “Effect on total predicted charge (spike normalised), pre- vs post-drug” value (A-type K+ ion channel; 100 nM IbTX, A-type K+ ion channel, 2000 ms prediction window, FIG. 12A) was “does not have a visible effect” and the “EXPECTED DEGREE OF BLOCK AT APPLIED CONCENTRATION” value (BK [α + β3]) was 77%. For the same compound, the “Effect on total predicted charge (spike normalised), pre- vs post-drug” value (NaT ion channel) was “does not have a visible effect”, the “EXPECTED DEGREE OF BLOCK AT APPLIED CONCENTRATION” value (BK [α subunit only]) was 86% and the “EXPECTED DEGREE OF BLOCK AT APPLIED CONCENTRATION” value (BK [α + β1]) was 12%. The “Effect on total predicted charge (spike normalised), pre- vs post-drug” value (SK ion channel) was “does not have a visible effect” and the “EXPECTED DEGREE OF BLOCK AT APPLIED CONCENTRATION” value (BK [α + β4]) was “Insensitive”.
In the case of `CCN(c1ccccc1)c1cc(=NC)n(C)c(C)n1.Cl` [ZD 7288], the “EXPECTED DEGREE OF BLOCK AT APPLIED CONCENTRATION” value (HCN1) is listed as roughly 63% and the “EXPECTED DEGREE OF BLOCK AT APPLIED CONCENTRATION” value (HCN2) is listed as roughly 80%.
